Data: ChEMBL document CHEMBL5625242, “Discovery of brain permeable 2-Azabicyclo[2.2.2]octane sulfonamides as a novel class of presenilin-1 selective γ-secretase inhibitors” (Eur J Med Chem, 2023)

Legend:
Format in all cases: cell-based
[1] = Inhibition of human PSEN2/APH1B expressed in MEF cells with Psen1/2 double knockout/Aph1ABC triple knockout by ELISA
[2] = Inhibition of human PSEN1/APH1B expressed in MEF cells with Psen1/2 double knockout/Aph1ABC triple knockout by ELISA
[3] = Inhibition of human PSEN1/APH1A expressed in MEF cells with Psen1/2 double knockout/Aph1ABC triple knockout by ELISA
[4] = Inhibition of human PSEN2/APH1A expressed in MEF cells with Psen1/2 double knockout/Aph1ABC triple knockout by ELISA
[5] = species: Homo sapiens; test: Selectivity ratio of IC50 for human PSEN2/APH1A expressed in MEF cells with Psen1/2 double knockout/Aph1ABC triple knockout to IC50 for human PSEN1/APH1B expressed in MEF cells with Psen1/2 double knockout/Aph1ABC triple knockout
[6] = species: Homo sapiens; test: Selectivity ratio of IC50 for human PSEN2/APH1B expressed in MEF cells with Psen1/2 double knockout/Aph1ABC triple knockout to IC50 for human PSEN1/APH1B expressed in MEF cells with Psen1/2 double knockout/Aph1ABC triple knockout

| Structure (SMILES) | IC50 [1] [µM] | IC50 [2] [nM] | IC50 [3] [nM] | IC50 [4] [µM] | Ratio IC50 [5] | Ratio IC50 [6] |
| --- | --- | --- | --- | --- | --- | --- |
| O=S(=O)(c1ccc(Cl)cc1)N1[C@H]2CC[C@H]([C@H](O)C2)[C@H]1c1ccccc1Cl (racemic) | > 10 | 426 | 2240 | > 10 |  |  |
| O=C1C[C@@H]2CC[C@H]1[C@@H](c1ccc(C(F)(F)F)cc1)N2S(=O)(=O)c1ccc(F)cc1 (racemic) | > 10 | 208 | 1000 | > 10 |  |  |
| N#Cc1ccc([C@@H]2[C@@H]3CC[C@@H](CC3=O)N2S(=O)(=O)c2ccc(Cl)cc2)cc1 (racemic) | > 8 | 234 | 891 | > 8 |  |  |
| O=S(=O)(c1ccc(Cl)cc1)N1[C@H]2CC[C@H]([C@H](O)C2)[C@H]1c1ccc(C(F)(F)F)nc1 (racemic) | > 10 | 776 | 6460 | > 10 |  |  |
| O=S(=O)(c1ccc(Cl)cc1)N1[C@H]2CC[C@H]([C@H](O)C2)[C@H]1c1ccc(C(F)(F)F)cc1 (racemic) | > 10 | 109 | 758 | > 10 |  |  |
| O=C1C[C@@H]2CC[C@H]1[C@@H](c1ccc(Cl)cc1)N2S(=O)(=O)c1ccc(Cl)cc1 (racemic) | > 10 | 182 | 1350 | > 10 | > 5 | > 5 |
| CCNC(=O)Nc1ccc([C@@H]2[C@@H]3CC[C@@H](CC3=O)N2S(=O)(=O)c2ccc(Cl)cc2)cc1 (racemic) | 8.5 | 389 | 3800 | 7 |  |  |
| COCC(=O)Nc1ccc([C@@H]2[C@@H]3CC[C@@H](C[C@@H]3O)N2S(=O)(=O)c2ccc(Cl)cc2)cc1 (racemic) | 2 | 52 | 208 | 1.41 |  |  |
| COCC(=O)Nc1ccc([C@@H]2[C@@H]3CC[C@@H](CC3=O)N2S(=O)(=O)c2ccc(Cl)cc2)cc1 (racemic) | > 10 | 1440 | > 10000 | > 10 |  |  |
| O=C1C[C@@H]2CC[C@H]1[C@@H](c1ccc(C(F)(F)F)cc1)N2S(=O)(=O)c1ccccc1Cl (racemic) | > 10 | 5890 | > 10000 | > 10 |  |  |
| COc1ccc([C@@H]2[C@@H]3CC[C@@H](C[C@@H]3O)N2S(=O)(=O)c2ccc(Cl)cc2)cn1 (racemic) | > 10 | 62 | 380 | > 10 |  |  |
| O=C1C[C@@H]2CC[C@H]1[C@@H](c1cc(F)ccc1F)N2S(=O)(=O)c1ccc(Cl)cc1 (racemic) | > 10 | 426 | 1020 | > 10 | 25 | 25 |
| O=S(=O)(c1ccc(Cl)cc1)N1[C@H]2CC[C@H]([C@H](O)C2)[C@H]1c1cc(F)ccc1F (racemic) | 7.76 | 427 | 851 | 7.76 |  |  |
| Cc1ccc(S(=O)(=O)N2[C@H]3CC[C@@H]([C@H]2c2ccc(C#N)nc2)[C@@H](O)C3)cc1 (racemic) | > 10 | 158 | 1100 | > 10 |  |  |
| CCNC(=O)Nc1ccc([C@@H]2[C@@H]3CC[C@@H](C[C@@H]3O)N2S(=O)(=O)c2ccc(Cl)cc2)cc1 (racemic) | 4.79 | 79.4 | 446 | 2.34 |  |  |
| O=S(=O)(c1ccc(Cl)cc1)N1[C@H]2CC[C@@H]([C@H]1c1ccc(OC(F)(F)F)cc1)[C@@H](O)C2 (racemic) | > 10 | 37 | 151 | > 10 |  |  |
| CC(=O)Nc1ccc([C@@H]2[C@@H]3CC[C@@H](C[C@@H]3O)N2S(=O)(=O)c2ccc(Cl)cc2)cc1 (racemic) | > 1.3 | 24.5 | 135 | 1.2 |  |  |
| O=S(=O)(c1ccc(Cl)cc1)N1[C@H]2CC[C@@H]([C@H]1c1ccc(F)c(F)c1)[C@@H](O)C2 (racemic) | > 10 | 58 | 295 | > 10 |  |  |
| O=C1C[C@@H]2CC[C@H]1[C@@H](c1ccc(C(F)(F)F)nc1)N2S(=O)(=O)c1ccc(Cl)s1 (racemic) | > 10 | 588 | 1900 | > 10 |  |  |
| O=C1C[C@@H]2CC[C@H]1[C@@H](c1ccc(OC(F)(F)F)cc1)N2S(=O)(=O)c1ccc(Cl)cc1 (racemic) | > 10 | 190 | 1620 | > 10 | > 5 | > 5 |
| O=S(=O)(c1ccc(Cl)s1)N1[C@H]2CC[C@@H]([C@H]1c1ccc(F)c(F)c1)[C@@H](O)C2 (racemic) | > 10 | 74 | 398 | > 10 |  |  |

| Structure (SMILES) | IC50 [1] [µM] | IC50 [2] [nM] | IC50 [3] [nM] | IC50 [4] [µM] | Ratio IC50 [5] | Ratio IC50 [6] |
| --- | --- | --- | --- | --- | --- | --- |
| O=S(=O)(c1ccc(Cl)cc1)N1[C@H]2CC[C@H]([C@H](O)C2)[C@H]1c1ccc(C(F)(F)F)cc1 [listing 1 of 2 here] |  |  |  |  | 15 | 15 |
| N#Cc1ccc([C@@H]2[C@@H]3CC[C@@H](C[C@@H]3O)N2S(=O)(=O)c2ccc(Cl)cc2)cc1 (racemic) | 0.631 | 12 | 64 | 0.758 |  |  |
| O=S(=O)(c1ccc(Cl)cc1)N1[C@H]2CC[C@@H]([C@H]1c1ccc(C(F)(F)F)nc1)[C@@H](O)C2 (racemic) | > 2 | 38 | 263 | > 2 |  |  |
| N#Cc1ccc([C@@H]2[C@@H]3CC[C@@H](CC3=O)N2S(=O)(=O)c2ccc(Cl)cc2)c(F)c1 (racemic) | 7.58 | 131 | 691 | 3.39 |  |  |
| O=C1C[C@@H]2CC[C@H]1[C@@H](c1ccccc1Cl)N2S(=O)(=O)c1ccc(Cl)cc1 (racemic) | > 10 | 389 | 2630 | > 10 |  |  |
| CC(=O)Nc1ccc([C@@H]2[C@@H]3CC[C@@H](CC3=O)N2S(=O)(=O)c2ccc(Cl)cc2)cc1 (racemic) | > 10 | 709 | 6310 | > 10 |  |  |
| CC(=O)Nc1ccc([C@@H]2[C@@H]3CC[C@@H](C[C@@H]3O)N2S(=O)(=O)c2ccc(Cl)s2)cc1 (racemic) | 0.851 | 26 | 72.4 | 0.513 |  |  |
| O=S(=O)(N[C@H]1CC[C@@](c2cc(F)ccc2F)(S(=O)(=O)c2ccc(Cl)cc2)CC1)C(F)(F)F | 0.139 | 0.42 | 1.4 | 0.153 | > 300 | > 300 |
| O=C1C[C@@H]2CC[C@H]1[C@@H](c1ccc(F)c(F)c1)N2S(=O)(=O)c1ccc(Cl)s1 (racemic) | > 10 | 1950 | > 10000 | > 10 |  |  |
| O=S(=O)(c1ccc(Cl)cc1)N1[C@@H]2CCC[C@H]1c1cn[nH]c1C2 | 0.38 |  | 47.2 | 0.272 | > 260 | > 260 |
| CC(=O)Nc1ccc([C@@H]2[C@@H]3CC[C@@H](CC3=O)N2S(=O)(=O)c2ccc(Cl)s2)cc1 (racemic) | 8 | 389 | 3020 | 8.5 |  |  |
| O=S(=O)(c1ccc(Cl)cc1)N1[C@H]2CC[C@H]([C@H](O)C2)[C@H]1c1ccc(C(F)(F)F)cc1 [listing 2 of 2 here] |  | 110 | 759 |  |  |  |
| O=C1C[C@@H]2CC[C@H]1[C@@H](c1ccc(Cl)cc1)N2S(=O)(=O)c1ccc(Cl)s1 (racemic) | > 10 | 281 | 2240 | > 10 |  |  |
| O=S(=O)(c1ccc(Cl)cc1)N1[C@H]2CC[C@@H]([C@H]1c1ccccc1)[C@@H](O)C2 (racemic) | 0.602 | 14 | 102 | 0.426 |  |  |
| CCOC(=O)Nc1ccc([C@@H]2[C@@H]3CC[C@@H](C[C@@H]3O)N2S(=O)(=O)c2ccc(Cl)cc2)cc1 (racemic) | 0.912 | 29 | 190 | 0.288 |  |  |
| O=S(=O)(c1ccc(Cl)cc1)N1[C@H]2CC[C@@H]([C@H]1c1ccc(Cl)cc1)[C@@H](O)C2 (racemic) | > 2 | 46 | 147 | > 2 |  |  |
| N#Cc1ccc([C@@H]2[C@@H]3CC[C@@H](C[C@@H]3O)N2S(=O)(=O)c2ccc(Cl)s2)cn1 (racemic) | 3.39 | 39 | 147 | 3.02 |  |  |
| O=S(=O)(c1ccc(Cl)s1)N1[C@H]2CC[C@@H]([C@H]1c1ccc(Cl)cc1)[C@@H](O)C2 (racemic) | > 2 | 58 | 199 | > 2 |  |  |
| Cc1ccc(S(=O)(=O)N2[C@H]3CC[C@@H]([C@H]2c2ccc(C(F)(F)F)cc2)[C@@H](O)C3)cc1 (racemic) | > 8 | 50 | 208 | > 8 |  |  |
| N#Cc1ccc([C@@H]2[C@@H]3CC[C@@H](C[C@H]3O)N2S(=O)(=O)c2ccc(Cl)cc2)cn1 | > 10 | > 10000 | > 10000 | > 10 |  |  |
